Legend:
[1] = test system: advanced-stage solid tumors; test: Best overall response per RECIST 1.1; assay type: in vivo, human
Method: Adverse events were coded using the standard MedDRA groupings and graded according to NCI-CTCAE version 5.0. Clinical chemistry, urinalysis, and coagulation tests were performed predose on days 1, 8, 15, 22, and weekly thereafter. Tumor imaging occurred every 8 weeks until week 33, and then every 16 weeks thereafter. Adverse events and DLTs were summarized descriptively by dose cohort. Pharmacokinetic parameters of GSK3368715 and its metabolites (GSK3963583 and GSK3983164) were estimated in the PK/PD population (all participants for whom a PK sample was obtained) using a noncompartmental analysis model (WinNonlin version 8.1) and summarized descriptively. Best overall response as per RECIST 1.1 was summarized descriptively by dose cohort. Levels of tumor cell and plasma pharmacodynamic biomarkers were also summarized descriptively.

protein SDMA = test: Protein SDMA in formalin-fixed paired tumor biopsies; assay type: in vivo, human

With CCOCC1(COCC)CCC(c2[nH]ncc2CN(C)CCNC)CC1 [GSK3368715] the “Best response: Complete response” value ([1]; 50 mg (n = 3)) was 0 n (%), the “Best response: Missing” value ([1]; 50 mg (n = 3)) was 0 n (%) and the “Best response: Not evaluable” value ([1]; 50 mg (n = 3)) was 1 (33) n (%). The “Best response: Partial response” value ([1]; 50 mg (n = 3)) was 0 n (%), the “Best response: Progressive disease” value ([1]; 50 mg (n = 3)) was 2 (67) n (%) and the “Best response: Stable disease” value ([1]; 50 mg (n = 3)) was 0 n (%). The “Overall response rate: Complete response + partial response” value (“Overall response rate” for short) ([1]; 50 mg (n = 3)) was 0 n (%), the “Best response: Complete response” value ([1]; 100 mg (n = 16)) was 0 n (%) and the “Best response: Missing” value ([1]; 100 mg (n = 16)) was 0 n (%). For the same compound, the “Best response: Not evaluable” value ([1]; 100 mg (n = 16)) was 0 n (%), the “Best response: Partial response” value ([1]; 100 mg (n = 16)) was 0 n (%) and the “Best response: Progressive disease” value ([1]; 100 mg (n = 16)) was 10 (63) n (%). The “Best response: Stable disease” value ([1]; 100 mg (n = 16)) was 6 (38) n (%), the “Overall response rate” value ([1]; 100 mg (n = 16)) was 0 n (%) and the “Best response: Complete response” value ([1]; 200 mg (n = 12)) was 0 n (%). For the same compound, the “Best response: Missing” value ([1]; 200 mg (n = 12)) was 3 (25) n (%), the “Best response: Not evaluable” value ([1]; 200 mg (n = 12)) was 0 n (%) and the “Best response: Partial response” value ([1]; 200 mg (n = 12)) was 0 n (%). For the same compound, the “Best response: Progressive disease” value ([1]; 200 mg (n = 12)) was 6 (50) n (%), the “Best response: Stable disease” value ([1]; 200 mg (n = 12)) was 3 (25) n (%) and the “Overall response rate” value ([1]; 200 mg (n = 12)) was 0 n (%). For the same compound, the “Patients with stable disease among patients with MTAP gene deletion” value ([1]; 6 patients with MTAP gene deletion) was 2, the “Patients with progressive disease among patients with MTAP gene deletion” value ([1]; 6 patients with MTAP gene deletion, treatment exposure 15 days to 37 days) was 4 and the “Best response: Complete response” value ([1]; Total (N = 31)) was 0 n (%). For the same compound, the “Best response: Missing” value ([1]; Total (N = 31)) was 3 (10) n (%), the “Best response: Not evaluable” value ([1]; Total (N = 31)) was 1 (3) n (%) and the “Best response: Partial response” value ([1]; Total (N = 31)) was 0 n (%). The “Best response: Progressive disease” value ([1]; Total (N = 31)) was 18 (58) n (%), the “Best response: Stable disease” value ([1]; Total (N = 31)) was 9 (29) n (%) and the “Disease stability, patients” value ([1]; all dose groups) was 29%. For the same compound, the “Patients with increased protein SDMA in formalin-fixed paired biopsies” value (protein SDMA; 7/8 patients) was 88% and the “Median increase of protein SDMA in formalin-fixed paired biopsies” value (protein SDMA; range −28 to 155%) was 48.9%.

Source: PMC10338470, “Phase 1 study of GSK3368715, a type I PRMT inhibitor, in patients with advanced solid tumors” (British Journal of Cancer, 2023)
